Measurements as given in US12398110B2, “Second generation inhibitors of mitochondrial permeability transition pore with improved plasma stability” (Oregon Health & Science University, priority 2019, dated 2025).

Key:
mtPTP [1] = test: Chemical activator (PhAsO, Diamide, Cu(OP)2, NEM) induced mitochondrial swelling; format: biochemical, mouse; conditions: 1.5 μm compound, 10 μm Ca2+ plus PhAsO, Cu(OP)2 or NEM
Protocol: […] graphs compound TR001 prevention of chemical activation induced mitochondrial swelling. FIG. 3A-3D) mouse liver mitochondria (0.25 mg/mL) were treated with 10 μM Ca^2+ only (traces a); 10 μm Ca^2+ and after 2 min of incubation with: FIG. 3A) 7 μm PhAsO, FIG. 3B) 2 mm Diamide, FIG. 3C), 7 μm Cu(OP)2, FIG. 3D), 2 mm NEM (traces b-d). In traces c and d additions were as in traces b except that mitochondria were also treated with 1.5 μmCsA (traces c) or TR001 (traces d). Traces are representative of n=4 independent preparations.
Based on the SAR studies and mouse plasma stability data, we decided to move forward with TR001 for more extensive biological characterization. As noted above, mtPTP is triggered by elevated levels of matrix Ca^2+ and potentiated by oxidative stress, leading to mitochondrial swelling. We therefore next tested the ability of TR001 to protect from oxidizing agent-triggered mtPTP opening. For this purpose, we used known chemical activators of the mtPTP that react with two distinct classes of redox sensitive thiols (—SH) and increase the propensity of mtPTP opening. […]

mtPTP [2] = test: Ca2+ overload induced mitochondrial swelling in isolated mouse liver mitochondria; format: biochemical; conditions: isolated mouse liver mitochondria; average ± SEM, n = 3-41; read-out: Mitochondrial Swelling EC50
Protocol: We next sought to evaluate the effects of TR001-13 on mtPTP activity in vitro. This was performed on isolated mitochondria. In isolated mitochondria induction of mtPTP opening leads to mitochondrial swelling due to the oncotic pressure gradient created by matrix proteins >1.5 kDa that cannot diffuse through the open pore. In in vitro experiments, where isolated mitochondria are routinely suspended in sucrose-based isosmotic solutions, the change in mitochondrial size can be measured spectrometrically by detecting the decrease in light scattering at 540 nm.
Isolation of mitochondria. C57BL6/N mouse liver mitochondria were prepared from 2 to 6 month old male mice by standard differential centrifugation. Mice fed ad libitum were euthanized with CO2 followed cervical dislocation, their livers were existed and placed in a glass beaker containing ice-cold isolation buffer (IB: 0.25 m sucrose, 10 mm Tris-HCl, 0.1 mm EGTA-Tris, pH 7.4) supplemented with fatty acid free bovine serum albumin. Livers were then cut into small pieces with scissors, rinsed with ice-cold IB, and passed through a pre-chilled Potter homogenizer with Teflon pestle. The homogenate (˜30 mL per liver) was transferred to centrifuge tubes, and unbroken cells and nuclei were removed by centrifugation at 700 g for 10 min at 4° C. The supernatant containing mitochondria and other organelles was transferred to new tubes and centrifuged at 6000 g for 10 min at 4° C. The resulting supernatant was discarded and mitochondrial pellet was carefully suspended in ice-cold IB and spun at 9500 g for 5 min at 4° C. The pellet was suspended in IB to give a protein concentration of ˜60-80 mg/mL and stored on ice. Experiments were started immediately and completed within 5 h. Protein concentration was determined by the Biuret method.
Assessment of mitochondrial swelling. Changes in mitochondrial volume of isolated mouse liver mitochondria were followed in a 96-well clear assay plate at a final volume of 0.2 mL and 0.25 mg/mL mitochondrial protein. Absorbance was read for 30 min at 540 nm on a Tecan Infinite F200 plate reader. Activity of test compounds was addressed as follows: First, 0.1 mL of sucrose assay buffer (SAB: 0.250 m sucrose, 10 mm MOPS-Tris, 0.01 mm EGTA-Tris, 1.0 mm phosphoric acid-Tris, 10 mm glutamate and 5 mm malate, pH 7.4) supplemented with twice the CaCl2 concentration required to induce mitochondrial swelling (which was determined for each preparation of mitochondria, typically 50 μm) was dispensed to the assay plate. A set of wells also contained 2.0 mm EGTA (to prevent mitochondrial swelling). The test wells contained a range of concentrations (in 1:2 serial dilutions) of the compounds of interest or 2% DMSO. Experiments were started by the addition of 0.1 mL of mitochondrial suspension (0.5 mg/mL mitochondria in SAB without respiratory substrates) to the assay plates. EC50s±SE were determined with OriginPro software by applying Hill1 function fitting algorithm on average concentration response data of n=3-41 independent preparations.

[3] = test system: col6a1 zebrafish morphants; test: Spontaneous coiling events in col6a1 zebrafish morphants; format: in vivo; conditions: 24 hpf, 3 hours of treatment, 0.1, 1 or 10 μm
Protocol: Zebrafish embryos were injected with col6a1 morpholino at the 1-cell stage, dechorionated at 20 hpf and treated at 21 hpf with 0.1, 1 or 10 μm of either TR001 or 63. DMSO-treated embryos injected with a scrambled morpholino were used as a control. […] It should be noted that in these protocols, embryos were exposed to drugs for a longer period of time than in the spontaneous coiling experiments. This difference may help to explain why TR001 was as effective at 0.1 μm as it was at 1 and 10 μm.
Morpholino antisense injection and treatment. Knock-down of col6a1 gene expression was obtained with a previously published morpholino ^[25] with sequence GAGAGCGGAAGACGAACCTTCATTC (SEQ ID NO: 2; GeneTools, Inc.). A control morpholino with no sequence homology in the zebrafish genome was used in parallel (CCTCTTACCTCAGTTACAATTTATA; SEQ ID NO: 3). […]
Motor activity. The number of spontaneous coiling events performed in 15 seconds by single zebrafish embryos was recorded at 24 hpf by light microscopy. Touch-evoked escape responses were recorded at 48 hpf by observing the ability of zebrafish embryos to escape after a tail-touch with a little tip. […]

Cc1ccc(Cl)cc1NC(=O)c1cn(-c2ccc(F)c(O)c2)nn1 [TR001, N-(5-chloro-2-methylphenyl)-1-(4-fluoro-3-hydroxyphenyl)-1H-1,2,3-triazole-4-carboxamide]
effect on oxidizing agent-triggered mtPTP opening (mtPTP [1]): delayed mtPTP opening | EC50 (mtPTP [2]): 29 ± 8 nM | spontaneous coiling events [3]: partially rescued the defect
